A value given as a limit tells only on which side of the number the result lay.

The target of the first assay is T1, Syk catalytic domain (aa 356-635 with a C-terminal His-tag) (Homo sapiens, UniProt P43405).
T1 construct: His-tag (C); made in house
The experiment in a line: In vitro Syk kinase activity measured by trFRET, Syk catalytic domain. The format is biochemical.
Details: not given
On the procedure:
In Vitro Syk Kinase Activity Measured by Time-Resolved Fluorescence Resonance Energy Transfer (trFRET)
0.14 nM purified Syk catalytic domain (aa 356-635 with a C-terminal His-tag purified in-house by immobilized metal ion affinity chromatography) was mixed with 0.2 μM peptide substrate (biotin-TYR1, Sequence: Biotin-(Ahx)-GAEEEIYAAFFA-COOH) at varying inhibitor concentrations in reaction buffer: 50 mM MOPSO pH 6.5, 10 mM MgCl2, 2 mM MnCl2, 2.5 mM DTT, 0.01% BSA, 0.1 mM Na3VO4 and 0.001 mM ATP. After about 60 min incubation at rt, the reaction was quenched by addition of EDTA (final concentration: 100 mM) and developed by addition of revelation reagents (final approximate concentrations: 30 mM HEPES pH 7.0, 0.06% BSA, 0.006% Tween-20, 0.24 M KF, 80 ng/mL PT66K (europium labeled anti-phosphotyrosine antibody cat #61T66KLB Cisbio, Bedford, Mass.) and 0.6 μg/mL SAXL (Phycolink streptavidin-allophycocyanin acceptor, cat #PJ255, Prozyme, San Leandro, Calif.). The developed reaction was incubated in the dark either at about 4° C. for about 14 h or for about 60 min at rt, then read via a time-resolved fluorescence detector (Rubystar, BMG) using a 337 nm laser for excitation and monitoring emission wavelengths at 665 nm. Within the linear range of the assay, the observed signal at 665 nm was directly related to phosphorylated product and can be used to calculate the IC50 values.
MOPSO buffer contains: 50 mM MOPSO pH 6.5, 10 mM MgCl2, 2 mM MnCl2, 2.5 mM DTT, 0.01% BSA, and 0.1 mM Na3VO4 HEPES buffer contains: 50 mM HEPES pH 7.1, 2.5 mM DTT, 10 mM MgCl2, 2 mM MnCl2, 0.01% BSA, and 0.1 mM Na3VO4 MOPS buffer contains: 20 mM MOPS pH 7.2, 10 mM MgCl2, 5 mM EGTA, 5 mM Beta-phosphoglycerol, 1 mM Na3VO4, 0.01% Triton-X-100 and 1 mM DTT
Biotin-TYR1-peptide sequence: Biotin-(Ahx)-GAEEEIYAAFFA-COOH Biotin-TYR2-peptide sequence: Biotin-(Ahx)-AEEEYFFLFA-amide KinEASE 51 peptides were purchased from Cisbio (cat #62ST0PEB, Bedford, Mass.)
PT66K was purchased from Cisbio (cat #61T66KLB, Bedford, Mass.) EuSTK was purchased from Cisbio (cat #62ST0PEB, Bedford, Mass.) SAXL was purchased from Prozyme (cat #PJ25S, San Leandro, Calif.) Human T-Blasts IL-2 pSTAT5 Cellular Assay
In turn, `CC(C)(O)c1ccc(-c2ncn3c2cnc2[nH]ccc23)cc1F` [AC.4.6] yielded an IC50 below 100 nM.

On to `c1cc2c(ncc3c(-c4ccc(OC5CCNC5)cc4)ncn32)[nH]1` (centres unmarked) [T.3.1.5], for which the IC50 lay in the range of 100 to 1000 nM.

`Cc1nc(-c2ccc(S(=O)(=O)N3CCN(C)CC3)cc2)c2cnc3[nH]ccc3n12` [AC.1.12] displayed an IC50 of 1000 to 10000 nM.

On to `Cc1cc(-c2nc(C)n3c2cnc2[nH]ccc23)ccc1N1CCN(C)CC1` [AC.1.30], for which the IC50 was below 100 nM.

The compound `COc1ccc(-c2nc(C)n3c2cnc2[nH]ccc23)c(C)c1` [AC.1.17] registered an IC50 above 10000 nM.

`CC(C)(O)c1ccc(-c2nc(CC3CCNCC3)n3c2cnc2[nH]ccc23)cc1` [T.4.1.2] registered an IC50 below 100 nM.

The compound `CC(C)(O)c1ccc(-c2nc(CNC(=O)CO)n3c2cnc2[nH]ccc23)cc1` [AC.5.7] registered an IC50 of 100 to 1000 nM.

The compound `Cc1nc(-c2ccc(CNS(=O)(=O)C3CC3)cc2)c2cnc3[nH]ccc3n12` [AC.1.38] registered an IC50 of 100 to 1000 nM.

In turn, `OCc1ccc(-c2ncn3c2cnc2[nH]ccc23)cc1` [AC.4.2] had an IC50 of 100 to 1000 nM.

The compound `CC(=O)c1ccc(-c2nc(C)n3c2cnc2[nH]ccc23)s1` [AC.1.32] had an IC50 of 100 to 1000 nM.

In turn, `CC(C)(O)c1ccc(-c2ncn3c2cnc2[nH]cc(C4=CCNCC4)c23)cc1` [AC.5.4] returned an IC50 of 1000 to 10000 nM.

Regarding `Cc1cc(-c2ncn3c2cnc2[nH]ccc23)ccn1` [AC.4.5], the IC50 lay in the range of 100 to 1000 nM.

Staying with this assay, now noted: Syk catalytic domain (aa 356-635), trFRET, 0.001 mM ATP.
Compound `Cn1ncc2cnc3[nH]c(-c4ccc(OCCN5CCOCC5)cc4)cc3c21` [N.2.4] had an IC50 below 100 nM.

`CSc1ccc(-c2nn(C)c3c2cnc2[nH]ccc23)cc1` [AU.1, 1-Methyl-3-(4-(methylthio)phenyl)-1,6-dihydropyrazolo[3,4-d]pyrrolo[2,3-b]pyridine] returned an IC50 below 100 nM.

Compound `CCCCC(=O)NCc1cccc(-c2cc3c(ncc4cnn(C)c43)[nH]2)c1` [J.1.1.4] showed an IC50 of 100 to 1000 nM.

In turn, `CC(C)(O)c1ccc(-c2nc(-c3ccccc3CN)n3c2cnc2[nH]ccc23)cc1` [Example 7, 2-(4-(1-(2-(Aminomethyl)phenyl)-6H-imidazo[1,5-a]pyrrolo[2,3-e]pyrazin-3-yl)phenyl)propan-2-ol] showed an IC50 of 100 to 1000 nM.

`COCCC(=O)NCc1cccc(-c2cc3c(ncc4cnn(C)c43)[nH]2)c1` [J.1.1.2] showed an IC50 of 100 to 1000 nM.

With `Cc1cc(C(C)(C)O)ccc1-c1nc(C)n2c1cnc1[nH]ccc12` [N.1.104], the IC50 lay within 1000 to 10000 nM.

Regarding `CNS(=O)(=O)c1cccc(-c2cc3c(ncc4cnn(C)c43)[nH]2)c1` [N.1.33], the IC50 is below 100 nM.

On to `CC(=O)N1CCC(O)(c2ccc(-c3nc(C)n4c3cnc3[nH]ccc34)cc2)CC1` [J.2.1.6], for which the IC50 is below 100 nM.

In the case of `Cn1cc(-c2cc3c(ncc4cnn(C)c43)[nH]2)c2cc(C(=O)N3CCC(CO)CC3)ccc21` [J.1.8.3], the IC50 was below 100 nM.

`Cn1ncc2cnc3[nH]c(-c4cccnc4)cc3c21` [N.2.2] registered an IC50 of 100 to 1000 nM.

Compound `CNc1ncc2cnc3[nH]c(-c4ccc(C)cc4)cc3n12` [M.1.15] gave an IC50 of 100 to 1000 nM.

`CC(C)(O)c1ccc(-c2nc(C3CCCCC3)n3c2cnc2[nH]ccc23)cc1` [N.1.49] returned an IC50 below 100 nM.

The compound `Cc1ncc2cnc3[nH]c(-c4cccc(S(C)(=O)=O)c4)cc3n12` [M.1.3] displayed an IC50 below 100 nM.

`CC(=O)N[C@@H]1C[C@@H](c2nc(-c3ccc(C(C)(C)O)cc3)c3cnc4[nH]ccc4n23)N(S(=O)(=O)C2CC2)C1` (racemic) [N.1.65]: the IC50 is 1000 to 10000 nM.

The compound `Cn1cc(-c2cc3c(ncc4cnn(C)c43)[nH]2)c2ccc(C(=O)NCC(C)(C)CO)cc21` [J.1.4.2] displayed an IC50 below 100 nM.

`COc1ccc2c(c1)c(-c1cc3c(ncc4cnc(C5CCOCC5)n43)[nH]1)cn2C` [M.1.10] yielded an IC50 below 100 nM.

`CS(=O)(=O)c1cccc(-c2cc3c(ncc4cnc(CCCN)n43)[nH]2)c1` [T.1.1.6]: the IC50 lay in the range of 100 to 1000 nM.

Values taken from patent US20140349970A1 (ABBVIE INC., priority 2009, published 2014).
